Results reported in the supplement of paper PMC13380429.

Columns and labels:
[1] = test system: A549-ACE2 infected with SARS-CoV-2; assay: cell count relative to DMSO; higher = less toxic; conditions: 24 h
[2] = test system: Caco-2; assay: cell viability relative to DMSO; higher = less toxic; conditions: 72 h
[3] = test system: HepG2; assay: as above; conditions: 72 h
[4] = test system: U2OS; assay: as above; conditions: 72 h
[5] = test system: Vero E6; assay: as above; conditions: 72 h
[6] = test system: A549-ACE2 infected with SARS-CoV-2; assay: SARS-CoV-2 infection rate relative to DMSO; higher = more infection; conditions: 24 h
[7] = test system: A549-ACE2; assay: phospholipidosis EC50; higher = less potent phospholipidosis inducer
[8] = test system: A549-ACE2; assay: drug-induced phospholipidosis relative to tamoxifen; higher = more phospholipidosis
[9] = test system: A549-ACE2 infected with SARS-CoV-2; assay: morphology score (similarity to uninfected cells); higher = more like uninfected cells; conditions: 24 h
[10] = test system: Caco-2; assay: relative viability EC50 (midpoint between 100% and the lowest measured viability); higher = less toxic; conditions: 72 h
[11] = test system: HepG2; assay: as above; conditions: 72 h
[12] = test system: U2OS; assay: as above; conditions: 72 h
[13] = test system: Vero E6; assay: as above; conditions: 72 h
[14] = test system: Caco-2; assay: drug sensitivity score (DSS) for viability; higher = more toxic; extreme values may be limits of the assay; conditions: 72 h
[15] = test system: HepG2; assay: as above; conditions: 72 h
[16] = test system: U2OS; assay: as above; conditions: 72 h
[17] = test system: Vero E6; assay: as above; conditions: 72 h
[18] = test system: Calu-3; assay: cell viability relative to DMSO; higher = less toxic; conditions: 72 h
[19] = test system: Calu-3; assay: relative viability EC50 (midpoint between 100% and the lowest measured viability); higher = less toxic; conditions: 72 h
[20] = test system: Calu-3; assay: drug sensitivity score (DSS) for viability; higher = more toxic; extreme values may be limits of the assay; conditions: 72 h

O=C(OC(C(F)(F)F)C(F)(F)F)N1CCN(Cc2cccc(Oc3ccccc3)c2)CC1 [JW-642]
Conditions	SARS-CoV-2 infection rate [%]	cell count [%]	cell viability [%]	morphology score	phospholipidosis EC50 [µM]
[1], 0.3 µM	–	103	–	–	–
[1], 3 µM	–	111	–	–	–
[1], 10 µM	–	105	–	–	–
[1], 30 µM	–	105	–	–	–
[2], 1 nM	–	–	98.3	–	–
[2], 10 nM	–	–	106	–	–
[2], 100 nM	–	–	99.4	–	–
[2], 1000 nM	–	–	100	–	–
[2], 10000 nM	–	–	92.4	–	–
[3], 1 nM	–	–	100	–	–
[3], 10 nM	–	–	116	–	–
[3], 100 nM	–	–	87.7	–	–
[3], 1000 nM	–	–	109	–	–
[3], 10000 nM	–	–	101	–	–
[4], 1 nM	–	–	101	–	–
[4], 10 nM	–	–	98.1	–	–
[4], 100 nM	–	–	102	–	–
[4], 1000 nM	–	–	95.7	–	–
[4], 10000 nM	–	–	97.6	–	–
[5], 1 nM	–	–	93.1	–	–
[5], 10 nM	–	–	106	–	–
[5], 100 nM	–	–	96.3	–	–
[5], 1000 nM	–	–	90.5	–	–
[5], 10000 nM	–	–	102	–	–
[6], 0.3 µM	100	–	–	–	–
[6], 3 µM	88	–	–	–	–
[6], 10 µM	99	–	–	–	–
[6], 30 µM	90	–	–	–	–
[7], 24 h	–	–	–	–	0.723
[7], 48 h	–	–	–	–	1.17
[7], 72 h	–	–	–	–	1.22
[9], 0.3 µM	–	–	–	-0.02	–
[9], 3 µM	–	–	–	0.31	–
[9], 10 µM	–	–	–	-0.04	–
[9], 30 µM	–	–	–	0.29	–

drug-induced phospholipidosis [%], [8]
Conditions	0.3 µM	0.833333 µM	3.33333 µM	6.66667 µM	10 µM	30 µM
24 h	6.56	21.9	39.6	46.5	46.2	54.6
48 h	5.07	23.9	54.4	65.2	57.8	68.1
72 h	4.87	23.8	62.1	70.4	64.8	73.8

Conditions	drug sensitivity score	relative viability EC50 [µM]
[10]	–	> 10
[11]	–	> 10
[12]	–	> 10
[13]	–	> 10
[14]	0	–
[15]	0	–
[16]	0	–
[17]	0	–

CCN1C(C)(C)CC(Oc2ccc(C(=O)Nc3ccc(NC(=O)Nc4cc(C(C)(C)C)on4)cc3)nc2)CC1(C)C [AC-710]
cell viability [%]
Conditions	[2]	[3]	[4]	[5]	[18]
1 nM	100	100	98.9	101	108
10 nM	89.4	97.7	97	106	105
100 nM	100	94.1	98.9	99.9	97.4
1000 nM	94.4	105	99.9	104	89.4
10000 nM	88.2	87.3	94.3	96.8	94

Conditions	drug sensitivity score	relative viability EC50 [µM]
[10]	–	> 10
[11]	–	> 10
[12]	–	> 10
[13]	–	> 10
[14]	0	–
[15]	0	–
[16]	0	–
[17]	0	–
[19]	–	> 10
[20]	0.2	–

NC(=O)C[C@H](N)C(=O)O [L-asparagine]
cell viability [%]
Conditions	[2]	[3]	[4]	[5]	[18]
1 nM	103	92.7	96.5	102	95.2
10 nM	104	116	95.4	112	95.6
100 nM	92.1	92.3	98.6	99.2	93.1
1000 nM	106	105	98.7	101	96.1
10000 nM	105	93.7	102	86.8	98

Conditions	drug sensitivity score	relative viability EC50 [µM]
[10]	–	> 10
[11]	–	> 10
[12]	–	> 10
[13]	–	> 10
[14]	0	–
[15]	0	–
[16]	0	–
[17]	0.1	–
[19]	–	> 10
[20]	0	–

CCCCOc1cc(CC2CNC(=O)N2)ccc1OC (stereo unspecified) [Ro-20-1724]
cell viability [%]
Conditions	[2]	[3]	[4]	[5]	[18]
1 nM	97.3	101	96.3	95.4	97.1
10 nM	96.8	91.6	102	94.8	105
100 nM	102	105	95.2	101	104
1000 nM	103	91.1	107	95.1	108
10000 nM	110	89.5	102	99.1	96.8

Conditions	drug sensitivity score	relative viability EC50 [µM]
[10]	–	> 10
[11]	–	> 10
[12]	–	> 10
[13]	–	> 10
[14]	0	–
[15]	0.1	–
[16]	0	–
[17]	0	–
[19]	–	> 10
[20]	0	–

Nc1ncnc(Nc2ccc(Cl)cc2)n1 [chlorazanil]
cell viability [%]
Conditions	[2]	[3]	[4]	[5]	[18]
1 nM	116	96.4	101	99.6	104
10 nM	97.7	93.9	96.8	101	101
100 nM	96.5	88	97.8	91	103
1000 nM	101	93.7	98.3	98.6	87.4
10000 nM	103	92.5	99.6	101	98.4

Conditions	drug sensitivity score	relative viability EC50 [µM]
[10]	–	> 10
[11]	–	> 10
[12]	–	> 10
[13]	–	> 10
[14]	0	–
[15]	0	–
[16]	0	–
[17]	0	–
[19]	–	> 10
[20]	0	–

COc1ccc2ccc(=O)oc2c1CC=C(C)C [osthol]
cell viability [%]
Conditions	[2]	[3]	[4]	[5]	[18]
1 nM	94.3	96.5	92.9	95.1	86.6
10 nM	95.1	105	100	94.4	98.2
100 nM	94	98.8	93.3	95.9	104
1000 nM	100	106	99	93.2	114
10000 nM	101	100	102	99.2	108

Conditions	drug sensitivity score	relative viability EC50 [µM]
[10]	–	> 10
[11]	–	> 10
[12]	–	> 10
[13]	–	> 10
[14]	0	–
[15]	0	–
[16]	0	–
[17]	0	–
[19]	–	> 10
[20]	0	–

COc1cccc(CCc2ccccc2OCC(CN(C)C)OC(=O)CCC(=O)O)c1 (stereo unspecified) [sarpogrelate]
cell viability [%]
Conditions	[2]	[3]	[4]	[5]	[18]
1 nM	92.1	109	100	105	96.5
10 nM	101	104	105	98.6	98.3
100 nM	98.4	105	99.8	104	96.4
1000 nM	105	92.5	103	100	102
10000 nM	98.2	102	95.3	95.8	96.9

Conditions	drug sensitivity score	relative viability EC50 [µM]
[10]	–	> 10
[11]	–	> 10
[12]	–	> 10
[13]	–	> 10
[14]	0	–
[15]	0	–
[16]	0	–
[17]	0	–
[19]	–	> 10
[20]	0	–
